Earlier results on six compounds are cited in publication PMC8891573, “Dysregulation of the Nitric Oxide/Dimethylarginine Pathway in Hypoxic Pulmonary Vasoconstriction—Molecular Mechanisms and Clinical Significance” (Frontiers in Medicine, 2022).

Read-outs that look alike come from different tables or passages of the source.

For data set [1] the following is noted: inhaled NO, small trials.
A further data set deals with mouse lungs. Set-up: method as in PMID 19648472. Conditions: oral L-arginine treatment.
On the set-up of data set [2]: method as in PMID 9799202.
Another data set relates to mice. Set-up: method as in PMID 17068215. Conditions: acute HX exposure, HC or SC mice, i.p. injection of ADMA.
A further data set concerns CAT-2. Set-up: method as in PMID 28684763, PMID 9701046.
A further data set deals with eNOS. Conditions: for effect on NOS activity: competition with L-arginine for the NOS catalytic site.
The test system of a further data set is isolated aortic rings. More on the design: method as in PMID 2870025.
A further data set concerns ETA and ETB receptors. More on the design: method as in PMID 8847282, PMID 8873714, PMID 20415698. The note with it: animal models and clinical studies.

As for Nitric oxide [NO], in data set [1], the “effects on COVID-19-associated hypoxaemia and outcome” value is listed as “inconclusive”.
`N=C(N)NCCC[C@H](N)C(=O)O` [L-arginine]: the “PRMT2, DDAH2, ADMA and nitrotyrosine changes in ovalbumin-treated mice” value with mouse lungs was “PRMT2 ↑ and DDAH2 ↓ in ovalbumin-treated mice, along with ↑ ADMA and ↑ nitrotyrosine; Reversal with oral L-arginine treatment”. In addition, the “reversal of impaired NO generation and endothelial dysfunction due to elevated ADMA” value in data set [2] is recorded as “reversible”.
`CN(C)C(N)=NCCC[C@H](N)C(=O)O` [ADMA, asymmetric dimethylarginine]: the HX survival time entry in the data set with mice was “ADMA increased HX survival time in HC and in SC mice; the effect was mediated by regulation of eNOS activity”. Moreover, the “inhibition of CAT-2, cellular uptake transporter for L-arginine” value in the data set with CAT-2 was “may inhibit”. Further, in the data set on eNOS, the “inhibition of eNOS” value is reported as “competitive inhibitor” and the “effect on NOS activity” value was “competitively inhibits NOS activity”.
On to `CC(=O)OCC[N+](C)(C)C` [acetylcholine], for which the results for the “vascular response of aortic rings” value in the data set with isolated aortic rings (Wistar rats) and in the data set on isolated aortic rings (spontaneously hypertensive rats (SHR)) were “endothelium-dependent vasodilation” and “vasoconstriction”, respectively.
Consider `COc1ccccc1Oc1c(NS(=O)(=O)c2ccc(C(C)(C)C)cc2)nc(-c2ncccn2)nc1OCCO` [bosentan], for which the “effect on HPV” value in the data set with ETA and ETB receptors is on record as “variable effects”.
Regarding `CN=C(NC)NCCC[C@H](N)C(=O)O` [SDMA, symmetric dimethylarginine], in the data set with CAT-2, the “inhibition of CAT-2, cellular uptake transporter for L-arginine” value is given as “may inhibit”. Further, the “effect on NOS activity” value in the data set with eNOS is given as “unable to directly interfere with NOS activity”.
